Values after ≈ are worked out from the molar mass of the structure shown.
Legend:
[1] = biological target: T1, Recombinant DHODH from human (Homo sapiens, UniProt Q02127); test: DHODH inhibition screen (DCIP reduction, 600 nm), human enzyme; assay type: biochemical; settings: Table 3, read-out: IC50 values for Compound Examples 1 to 15 identified from screens, Human
T1 construct: His-tag; NusA (Nus-tag) fusion of vector pET43.1 (own knowledge of the vector) (N); made in house; host or cells: E. coli BL21 DE3
T1 sequence (Q02127 31-395 limits assumed): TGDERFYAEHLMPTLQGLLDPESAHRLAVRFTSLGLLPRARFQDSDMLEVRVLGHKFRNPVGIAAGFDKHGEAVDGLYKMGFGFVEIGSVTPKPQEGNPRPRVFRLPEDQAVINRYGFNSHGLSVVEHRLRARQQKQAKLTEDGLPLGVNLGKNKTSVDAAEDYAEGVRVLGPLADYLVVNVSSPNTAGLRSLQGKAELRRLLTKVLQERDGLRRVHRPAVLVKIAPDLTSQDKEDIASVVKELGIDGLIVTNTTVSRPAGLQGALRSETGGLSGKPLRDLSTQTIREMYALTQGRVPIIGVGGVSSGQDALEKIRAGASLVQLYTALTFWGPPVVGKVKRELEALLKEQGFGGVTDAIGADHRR
Experimental: (§1) 1. The following buffer and stock solution were prepared:
Coenzyme Q2 (Sigma) was dissolved in DMSO to give a concentration of 10 mg/ml. […] The stock solution was made with 127.36 μl DHO, 127.36 μl DCIP and 318.4 μl Coenzyme Q2, made up to 80 ml with Buffer A. Final concentrations in assay wells were; DHO, 500 μM; Coenzyme Q, 50 μM; DCIP, 100 μM.
2. […] Duplicate sets of plates were used such that one set received enzyme while a control set received no enzyme.
3. […] Then 20 μl of DHODH solution was added to all the +enzyme plates and 20 μl of Buffer A was added to all the control −enzyme plates.
(§2) 4. 20 μl of DHO/Coenzyme Q2/DCIP solution was added to all the wells, after which plates were incubated at room temperature for […] and then read on a Tecan Safire spectrophotometer at 600 nm.
Recombinant DHODH from human or C. albicans was assayed in the same way. It is necessary to adjust the enzyme concentration and reaction time to take into account variations in activity of enzyme batches, thus the incubation time was 20 minutes for the C. albicans enzyme and 34 minutes for the human enzyme.

[2] = biological target: Recombinant A. fumigatus DHODH (Aspergillus fumigatus, UniProt Q4X169); test: DHODH inhibition screen (DCIP reduction, 600 nm), A. fumigatus enzyme; assay type: biochemical
Recombinant A. fumigatus DHODH, sequence (Q4X169 entry or part of it): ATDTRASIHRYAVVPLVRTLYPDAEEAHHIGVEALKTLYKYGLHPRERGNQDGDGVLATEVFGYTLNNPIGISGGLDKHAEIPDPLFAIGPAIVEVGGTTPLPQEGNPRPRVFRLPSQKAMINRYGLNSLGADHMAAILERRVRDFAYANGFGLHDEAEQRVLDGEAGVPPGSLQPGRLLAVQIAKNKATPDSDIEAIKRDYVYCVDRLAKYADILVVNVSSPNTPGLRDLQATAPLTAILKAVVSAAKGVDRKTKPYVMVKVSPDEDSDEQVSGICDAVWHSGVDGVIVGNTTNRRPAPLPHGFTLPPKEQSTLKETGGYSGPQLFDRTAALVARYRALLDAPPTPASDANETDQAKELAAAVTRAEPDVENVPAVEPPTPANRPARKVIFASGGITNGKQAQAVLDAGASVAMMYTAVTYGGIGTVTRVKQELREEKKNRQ
Experimental: as §1
Buffer A: 62.5 mM TrisHCl (pH8.0), 150 mM NaCl, 10% v/v glycerol
DHO/Coenzyme Q2/DCIP solution: 19.848 mg dihydroorotate (DHO; Sigma) was dissolved in 160 μl DMSO. Coenzyme Q2 (Sigma) was dissolved in DMSO to give a concentration of 10 mg/ml. 7.236 mg 2,6-dichloroindophenol (DCIP; Sigma) was dissolved in 160 μl DMSO. The stock solution was made with 127.36 μl DHO, 127.36 μl DCIP and 318.4 μl Coenzyme Q2, made up to 80 ml with Buffer A. Final concentrations in assay wells were; DHO, 500 μM; Coenzyme Q, 50 μM; DCIP, 100 μM.
2. Compounds were aliquotted into 384-well microtitre plates at a range of dilutions to give final concentrations in the assay of […]. Duplicate sets of plates were used such that one set received enzyme while a control set received no enzyme. Since compounds are frequently dissolved in DMSO or a DMSO/water mixture, assays were set up to give a final concentration of 1% (v/v) DMSO in wells.
3. Recombinant A. fumigatus DHODH was suspended in Buffer A to give a concentration of 1435.8 ng protein in 20 μl. Then 20 μl of DHODH solution was added to all the +enzyme plates and 20 μl of Buffer A was added to all the control −enzyme plates.
as §2
Recombinant DHODH from human or C. albicans was assayed in the same way. It is necessary to adjust the enzyme concentration and reaction time to take into account variations in activity of enzyme batches, thus the incubation time was 20 minutes for the C. albicans enzyme and 34 minutes for the human enzyme. Compounds are screened against a fungal and human enzyme to identify compounds which are selective for the fungal enzyme.

[3] = tested on: Aspergillus flavus; test: MIC in YAG medium, A. flavus; assay type: cell-based; settings: 24 hrs at 35° C., >70% growth inhibition, read-out: MIC grade, A. flavus
Experimental: (§3) Between 1 and 5 mgs of compound were accurately weighed out into a sterile Eppendorf tube. The compound was dissolved in DMSO to give a solution containing 5 mg/mL. Tubes were stored at −20° C. until required.
(§4) On the day of testing thawed solutions were vortex mixed to ensure homogeneity. 30 μL of solution was removed and added to 570 μL of sterile water in a separate sterile Eppendorf. The thoroughly mixed solution was used to prepare a series of doubling dilutions in water, in a deep well plate. Thirteen replicate plates were prepared using a Minitrak by aspirating 20 μL from each well into eleven clear polystyrene 96 well plates.
(§5) Spores of Aspergillus spp. (Aspergillus fumigatus [two strains], Aspergillus terreus [two strains], Aspergillus niger and Aspergillus flavus) were harvested from cultures grown on Sabarauds agar for 5 days, and resuspended in PBS/Tween 80 to approx 1×10^7 cfu/mL. Each organism suspension was diluted in YAG medium (1% glucose, 1% ammonium chloride and 0.5% yeast extract) to 0.5-2×10^4 cfu/mL. 80 μL of an organism suspension was added to each well of the plate containing drug dilutions.
(§6) All plates were incubated for 24 hrs at 35° C. Growth was assessed by monitoring the optical density at 485 nm for each well. The MIC of a compound is the lowest drug concentration that inhibits growth of an organism by >70% compared with a drug free control. MICs are recorded as mg/L. In cases where the MIC of an organism is […] the MIC is repeated using a concentration range of 0.5-0.0005 mg/L.

[4] = tested on: Aspergillus fumigatus; test: MIC in YAG medium, A. fumigatus; assay type: cell-based; settings: 24 hrs at 35° C., >70% growth inhibition, read-out: MIC grade, A. fumigatus
Experimental: as §3, §4, §5, §6

[5] = tested on: A. fumigatus 210; test: MIC in YAG medium, A. fumigatus 210; assay type: cell-based; settings: Aspergillus fumigatus, 24 hrs at 35° C., >70% growth inhibition, read-out: MIC grade, A. fumigatus 210
Experimental: as §3, §4, §5, §6

[6] = tested on: Aspergillus niger; test: MIC in YAG medium, A. niger; assay type: cell-based; settings: 24 hrs at 35° C., >70% growth inhibition, read-out: MIC grade, A. niger
Experimental: as §3, §4, §5, §6

[7] = tested on: Aspergillus terreus; test: MIC in YAG medium, A. terreus; assay type: cell-based; settings: 24 hrs at 35° C., >70% growth inhibition, read-out: MIC grade, A. terreus
Experimental: as §3, §4, §5, §6

[8] = tested on: A. terreus 49; test: MIC in YAG medium, A. terreus 49; assay type: cell-based; settings: Aspergillus terreus, 24 hrs at 35° C., >70% growth inhibition, read-out: MIC grade, A. terreus 49
Experimental: as §3, §4, §5, §6

[9] = tested on: Aspergillus flavus; test: MIC in RPMI medium, A. flavus; assay type: cell-based; settings: 24-48 hrs at 35° C., >80% growth inhibition, read-out: MIC grade, A. flavus
Experimental: as §3, §4
(§7) Assays were also performed in RPMI medium. To perform MIC tests in this medium, dilutions of compounds are prepared in microtitre plates as described above. Fungal strains to be tested are grown and harvested in an identical manner to that described above, and each organism suspension was diluted in RPMI medium, containing 2% glucose and 0.135 M MOPS buffer (pH 7.0) to 0.5-2×10^4 cfu/mL, rather than in YAG medium. 80 μL of an organism suspension was added to each well of the plate containing drug dilutions.
(§8) All plates were incubated for 24-48 hrs at 35° C. Growth was assessed by monitoring the optical density at 485 nm for each well. […] The following organisms were tested: Aspergillus flavus, Aspergillus fumigatus AF293 and AF210, Aspergillus niger and Aspergillus terreus AT4 and AT49.

[10] = tested on: Aspergillus fumigatus AF293; test: MIC in RPMI medium, A. fumigatus; assay type: cell-based; settings: 24-48 hrs at 35° C., >80% growth inhibition, read-out: MIC grade, A. fumigatus
Experimental: as §3, §4, §7, §8

[11] = tested on: Aspergillus fumigatus AF210; test: MIC in RPMI medium, A. fumigatus 210; assay type: cell-based; settings: 24-48 hrs at 35° C., >80% growth inhibition, read-out: MIC grade, A. fumigatus 210
Experimental: as §3, §4, §7, §8

[12] = tested on: Aspergillus niger; test: MIC in RPMI medium, A. niger; assay type: cell-based; settings: 24-48 hrs at 35° C., >80% growth inhibition, read-out: MIC grade, A. niger
Experimental: as §3, §4, §7, §8

[13] = tested on: Aspergillus terreus AT4; test: MIC in RPMI medium, A. terreus; assay type: cell-based; settings: 24-48 hrs at 35° C., >80% growth inhibition, read-out: MIC grade, A. terreus
Experimental: as §3, §4, §7, §8

[14] = tested on: Aspergillus terreus AT49; test: MIC in RPMI medium, A. terreus 49; assay type: cell-based; settings: 24-48 hrs at 35° C., >80% growth inhibition, read-out: MIC grade, A. terreus 49
Experimental: as §3, §4, §7, §8

SMILES | IC50 [1] | IC50 [2] | MIC [3] | MIC [4] | MIC [5] | MIC [6] | MIC [7] | MIC [8] | MIC [9] | MIC [10] | MIC [11] | MIC [12] | MIC [13] | MIC [14]
COc1ccccc1-n1c(SC(C)C)nc2ccc(N(C)C)cc2c1=O [Compound Example 6, 6-Dimethylamino-2-isopropylsulfanyl-3-(2-methoxy-phenyl)-3H-quinazolin-4-one] | 1.09 µM | 10.1 µM | > 10 µg/mL | 1 to 10 µg/mL (≈ 2.71 to 27.1 µM) | 1 to 10 µg/mL (≈ 2.71 to 27.1 µM) | < 1 µg/mL | 1 to 10 µg/mL (≈ 2.71 to 27.1 µM) | 1 to 10 µg/mL (≈ 2.71 to 27.1 µM) | > 10 µg/mL | > 10 µg/mL | 1 to 10 µg/mL (≈ 2.71 to 27.1 µM) | < 1 µg/mL | > 10 µg/mL | > 10 µg/mL
CCSc1nc2ccccc2c(=O)n1-c1ccccc1C(C)C [Compound Example 15, 2-Ethylsulfanyl-3-(2-isopropyl-phenyl)-3H-quinazolin-4-one] | 23.2 µM | 46.1 µM | > 10 µg/mL | < 1 µg/mL | < 1 µg/mL | < 1 µg/mL | 1 to 10 µg/mL (≈ 3.08 to 30.8 µM) | < 1 µg/mL | > 10 µg/mL | < 1 µg/mL | 1 to 10 µg/mL (≈ 3.08 to 30.8 µM) | < 1 µg/mL | > 10 µg/mL | > 10 µg/mL
CCSc1nc2cc(C)ccc2c(=O)n1-c1ccccc1OC [Compound Example 5, 2-Ethylsulfanyl-3-(2-methoxy-phenyl)-7-methyl-3H-quinazolin-4-one] | 15.5 µM | 5.4 µM | < 1 µg/mL | < 1 µg/mL | < 1 µg/mL | < 1 µg/mL | < 1 µg/mL | < 1 µg/mL | > 10 µg/mL | 1 to 10 µg/mL (≈ 3.06 to 30.6 µM) | 1 to 10 µg/mL (≈ 3.06 to 30.6 µM) | > 10 µg/mL | 1 to 10 µg/mL (≈ 3.06 to 30.6 µM) | 1 to 10 µg/mL (≈ 3.06 to 30.6 µM)
CC(C)Sc1nc2ccccc2c(=O)n1-c1ccccc1N(C)C [Compound Example 11, 3-(2-Dimethylamino-phenyl)-2-isopropylsulfanyl-3H-quinazolin-4-one] | 118 µM | 21.2 µM | > 10 µg/mL | 1 to 10 µg/mL (≈ 2.95 to 29.5 µM) | 1 to 10 µg/mL (≈ 2.95 to 29.5 µM) | 1 to 10 µg/mL (≈ 2.95 to 29.5 µM) | 1 to 10 µg/mL (≈ 2.95 to 29.5 µM) | 1 to 10 µg/mL (≈ 2.95 to 29.5 µM) | > 10 µg/mL | 1 to 10 µg/mL (≈ 2.95 to 29.5 µM) | > 10 µg/mL | 1 to 10 µg/mL (≈ 2.95 to 29.5 µM) | > 10 µg/mL | > 10 µg/mL
CCc1ccccc1-n1c(SC(C)C)nc2ccccc2c1=O [Compound Example 9, 3-(2-Ethyl-phenyl)-2-isopropylsulfanyl-3H-quinazolin-4-one] | 123 µM | 17.7 µM | > 10 µg/mL | < 1 µg/mL | < 1 µg/mL | < 1 µg/mL | 1 to 10 µg/mL (≈ 3.08 to 30.8 µM) | < 1 µg/mL | > 10 µg/mL | < 1 µg/mL | > 10 µg/mL | < 1 µg/mL | > 10 µg/mL | > 10 µg/mL
CCSc1nc2cccc(OC)c2c(=O)n1-c1ccccc1OC [Compound Example 12, 2-Ethylsulfanyl-5-methoxy-3-(2-methoxy-phenyl)-3H-quinazolin-4-one] | 117 µM | 26.9 µM | 1 to 10 µg/mL (≈ 2.92 to 29.2 µM) | < 1 µg/mL | < 1 µg/mL | < 1 µg/mL | 1 to 10 µg/mL (≈ 2.92 to 29.2 µM) | < 1 µg/mL | > 10 µg/mL | 1 to 10 µg/mL (≈ 2.92 to 29.2 µM) | 1 to 10 µg/mL (≈ 2.92 to 29.2 µM) | < 1 µg/mL | 1 to 10 µg/mL (≈ 2.92 to 29.2 µM) | 1 to 10 µg/mL (≈ 2.92 to 29.2 µM)
